# Literature values, collected in paper PMC3983144 (Bioconjugate chemistry, 2014).
# Square brackets hold non-standard residues; d marks the D form. Nle = CCCC[C@H](N)C(=O)O
# Tested on: MC1R
# Details: B16F1 melanoma cells
substance,measurement,value
Ac-[Nle]DH[dF]RWGK-NH2 [NAPamide],IC50,0.27 nM
